Each structure is given as a SMILES string. Where two headings read alike, the source gives them in different places.

One data set concerns the target T1, UGT1A3 (Homo sapiens, UniProt P35503).
T1 sequence (P35503 29-534): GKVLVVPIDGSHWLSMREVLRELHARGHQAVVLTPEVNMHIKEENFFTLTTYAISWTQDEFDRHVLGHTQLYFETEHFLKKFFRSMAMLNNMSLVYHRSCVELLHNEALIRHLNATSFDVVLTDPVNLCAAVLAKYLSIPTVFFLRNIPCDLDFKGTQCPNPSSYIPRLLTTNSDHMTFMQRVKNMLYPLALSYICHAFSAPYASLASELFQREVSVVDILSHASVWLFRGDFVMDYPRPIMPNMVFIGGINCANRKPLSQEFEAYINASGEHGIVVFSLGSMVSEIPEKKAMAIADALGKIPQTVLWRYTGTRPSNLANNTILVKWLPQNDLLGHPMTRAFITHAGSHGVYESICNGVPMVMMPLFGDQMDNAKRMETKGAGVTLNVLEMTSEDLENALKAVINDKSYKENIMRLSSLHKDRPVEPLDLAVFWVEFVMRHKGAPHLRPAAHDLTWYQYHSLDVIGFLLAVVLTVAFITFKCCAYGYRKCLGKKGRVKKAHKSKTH
The note with it: pH 7.4.

The next data set addresses T2, UGT1A1 (Homo sapiens, UniProt P22309).
T2 sequence (P22309 26-533): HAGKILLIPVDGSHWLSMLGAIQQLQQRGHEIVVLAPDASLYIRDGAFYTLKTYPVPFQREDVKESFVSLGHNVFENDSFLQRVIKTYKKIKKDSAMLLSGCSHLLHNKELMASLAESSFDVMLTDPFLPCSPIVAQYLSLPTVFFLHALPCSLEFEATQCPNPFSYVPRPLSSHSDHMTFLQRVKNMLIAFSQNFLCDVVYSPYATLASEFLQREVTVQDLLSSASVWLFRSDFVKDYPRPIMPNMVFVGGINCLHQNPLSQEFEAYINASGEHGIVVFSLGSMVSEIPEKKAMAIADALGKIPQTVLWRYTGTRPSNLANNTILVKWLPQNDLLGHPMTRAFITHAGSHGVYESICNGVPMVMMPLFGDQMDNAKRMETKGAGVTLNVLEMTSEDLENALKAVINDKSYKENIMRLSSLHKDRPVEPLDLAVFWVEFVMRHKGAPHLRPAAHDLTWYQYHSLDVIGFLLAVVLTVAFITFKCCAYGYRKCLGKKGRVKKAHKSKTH
The note with it: pH 7.4.

The target of data set [1] is T3, UGT1A9 (Homo sapiens, UniProt O60656).
T3 sequence (O60656 26-530): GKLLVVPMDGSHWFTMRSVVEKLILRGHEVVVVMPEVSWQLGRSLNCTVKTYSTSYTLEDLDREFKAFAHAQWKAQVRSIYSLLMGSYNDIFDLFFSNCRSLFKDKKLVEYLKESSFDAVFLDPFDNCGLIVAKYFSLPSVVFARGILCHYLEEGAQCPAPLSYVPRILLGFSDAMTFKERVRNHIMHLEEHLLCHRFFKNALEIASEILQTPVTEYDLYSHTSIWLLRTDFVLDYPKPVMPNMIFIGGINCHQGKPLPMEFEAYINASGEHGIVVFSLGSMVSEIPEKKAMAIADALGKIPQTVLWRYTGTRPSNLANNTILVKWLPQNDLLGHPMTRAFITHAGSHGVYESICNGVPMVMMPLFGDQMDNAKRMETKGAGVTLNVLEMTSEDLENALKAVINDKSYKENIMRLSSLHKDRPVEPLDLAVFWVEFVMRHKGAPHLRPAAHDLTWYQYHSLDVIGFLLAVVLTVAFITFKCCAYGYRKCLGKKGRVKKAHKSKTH
The note with it: pH 7.4.

In data set [2] the test system is UGT 1A1, 1A3, 1A6, 1A7, 1A8, 1A9, 1A10 and 2B7. The conditions noted are these: human, 10 μM, pH 7.4.
The conditions of data set [3]: bioavailability studies in humans; cited from earlier work.
For data set [4], the target named is T3, UGT1A9. The conditions noted are these: cited from earlier work.

For the compound `O=c1cc(-c2ccc(O)cc2)oc2cc(O)cc(O)c12` [5,7,4'THF, 5,7,4’-trihydroxyflavone], the “Degree of regiospecificity (major glucuronide in bracket)” value on UGT1A3 (2.5 μM), at UGT1A3 (10 μM), on UGT1A1 (2.5 μM), on UGT1A1 (10 μM), at UGT1A9 [1] (2.5 μM) and on UGT1A9 [1] (10 μM) was “Dominant (7-O)” throughout. The “Glucuronidation and regiospecificity across the 8 UGT isoforms” value in data set [2] was “all isoforms showed dominant regiospecific glucuronidation of hydroxyl group at C-7 position only”.
`O=c1c(O)c(-c2ccc(O)c(O)c2)oc2cc(O)cc(O)c12` [quercetin, 3,5,7,3’-4’-pentahydroxyflavone]: the Main glucuronide found in data set [3] is on record as 3-O-glucuronide of quercetin was also the main glucuronide. The “Catalytic efficiency order for regiospecific glucuronidation” value at UGT1A9 [4] is given as 3- > 7- > 3′- > 4′-O-glucuronide.

(Values after PMC3391414 (Journal of Agricultural and Food Chemistry, 2011).)
